In experiment [1] the target is T1, CaFun30-c334 (Candida albicans, UniProt A0A1D8PTJ0).
T1 construct: gene FUN30; C-terminal fragment (RecA-like domain 2, motifs IV-VI, no ATPase activity), probably the last 334 residues; pCOLD I vector (N-terminal His tag implied), E. coli BL21(DE3) Rosetta, Ni-NTA purified
T1 sequence (A0A1D8PTJ0 764-1097): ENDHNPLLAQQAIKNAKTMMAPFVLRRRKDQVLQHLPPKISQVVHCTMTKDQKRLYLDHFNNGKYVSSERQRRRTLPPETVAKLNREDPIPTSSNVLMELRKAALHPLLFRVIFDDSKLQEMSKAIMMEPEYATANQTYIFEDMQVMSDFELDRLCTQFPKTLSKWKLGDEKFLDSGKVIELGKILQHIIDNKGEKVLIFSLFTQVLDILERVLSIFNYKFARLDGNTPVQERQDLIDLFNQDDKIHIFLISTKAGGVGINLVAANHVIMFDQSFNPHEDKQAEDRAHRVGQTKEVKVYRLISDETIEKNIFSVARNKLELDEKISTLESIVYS
In words: biolayer interferometry (Octet R8, Ni-NTA sensor, protein immobilised). The class given is binding. The following applies: PBS pH 7.4, 2 mM beta-mercaptoethanol; 1:1 model. For orientation: Biolayer interferometry detects binding as a change in optical thickness at a sensor tip.

Experiment [2] has as its target T2, CaFun30 (Candida albicans, UniProt A0A1D8PTJ0).
T2 construct: gene FUN30; full length, cloned NheI/XhoI in pET21c(+), expressed in E. coli BL21(DE3) Rosetta, Ni-NTA purified
T2 sequence (A0A1D8PTJ0 1-1097): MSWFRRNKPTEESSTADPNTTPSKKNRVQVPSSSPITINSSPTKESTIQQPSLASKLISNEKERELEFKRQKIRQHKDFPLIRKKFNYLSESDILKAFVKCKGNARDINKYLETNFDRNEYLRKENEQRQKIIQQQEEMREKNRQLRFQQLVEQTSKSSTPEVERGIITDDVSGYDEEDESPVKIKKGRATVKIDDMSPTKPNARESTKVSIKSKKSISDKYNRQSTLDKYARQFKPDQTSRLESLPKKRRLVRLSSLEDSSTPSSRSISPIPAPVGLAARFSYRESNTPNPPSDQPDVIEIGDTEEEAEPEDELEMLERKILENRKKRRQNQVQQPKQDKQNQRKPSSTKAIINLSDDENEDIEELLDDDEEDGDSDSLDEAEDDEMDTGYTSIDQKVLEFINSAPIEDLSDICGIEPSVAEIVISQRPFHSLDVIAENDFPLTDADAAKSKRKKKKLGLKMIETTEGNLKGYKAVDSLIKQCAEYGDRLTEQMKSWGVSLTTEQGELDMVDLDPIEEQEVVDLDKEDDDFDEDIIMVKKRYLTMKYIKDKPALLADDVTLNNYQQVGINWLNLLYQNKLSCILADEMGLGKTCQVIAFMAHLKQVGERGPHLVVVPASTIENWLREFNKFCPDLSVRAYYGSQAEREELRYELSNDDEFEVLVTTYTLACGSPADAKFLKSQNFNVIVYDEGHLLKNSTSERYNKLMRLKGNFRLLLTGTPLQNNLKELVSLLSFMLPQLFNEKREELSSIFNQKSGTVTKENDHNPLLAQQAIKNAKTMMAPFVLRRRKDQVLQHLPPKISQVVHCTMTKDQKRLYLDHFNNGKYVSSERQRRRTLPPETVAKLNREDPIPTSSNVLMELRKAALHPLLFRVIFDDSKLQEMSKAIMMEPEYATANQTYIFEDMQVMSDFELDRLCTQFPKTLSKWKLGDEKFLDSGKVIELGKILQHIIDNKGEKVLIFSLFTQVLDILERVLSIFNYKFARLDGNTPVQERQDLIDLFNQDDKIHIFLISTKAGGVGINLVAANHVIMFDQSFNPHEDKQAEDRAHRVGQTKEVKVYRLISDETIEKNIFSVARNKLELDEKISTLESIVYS
Described as above. The class given is binding. The settings on record: PBS pH 7.4, 2 mM beta-mercaptoethanol; 1:1 model.

By Kd is commonly meant the constant that tells how readily two partners part at equilibrium. High values mean weaker binding, low ones tighter binding.

Molecules are shown by their SMILES.

Regarding `Cc1ccc(NC(=O)CSc2nc(C(F)(F)F)cc(=O)[nH]2)cc1Cl` [F2716-0594], the Kd in experiment [1] is 25.1 µM; in experiment [2], 680 µM.

For the compound `Cc1nnc2sc(SCC(=O)Nc3ccc(Cl)cc3)nn2c1=O` [F1853-0039], the Kd in experiment [1] was determined as 0.87 µM; in experiment [2], 0.6 µM.

Take `CCc1cc2c(=O)c(-c3ccc(F)cc3)c(C)oc2cc1OCc1ccccc1` [F1067-0218]: the Kd in experiment [1] was 18 µM; in experiment [2] it was 125 µM.

Source of the values: publication doi:10.1101/2025.07.07.663444v1, “Antifungal therapeutic potential of Candida albicans Fun30: screening and validation of novel inhibitors against Candida albicans” (biorxiv, 2025).
